From patent US20260256790A1, “DEBIO-0123 IN COMBINATION WITH TEMOZOLOMIDE AND RADIOTHERAPY FOR USE IN TREATING GLIOMA” (Debiopharm International S.A., priority 2023, published 2026)
Read-outs that look alike come from different tables or passages of the source.

Assays:
[1] = Plasma and brain concentrations (PK) in healthy mice after oral dosing; assay type: in vivo, Nu/Nu mice; conditions: 30 mg/kg, oral; for Kp / Cmax / AUC(0-inf) / AUC(0-t): male, Nu/Nu, mouse, po; for Kp: brain/plasma; for Cmax / AUC(0-inf) / AUC(0-t): plasma; for AUC(0-inf): read-out: AUCInf, plasma; for AUC(0-t): read-out: AUCLast, plasma
Method: Healthy male Nu/Nu mice were treated orally with either (i) a single dose of 30 mg/kg Compound of formula (I) ([…], 3 mice per time-point), (ii) 30 mg/kg of Compound of formula (I) given once a day for four consecutive days (27 mice in total, 3 mice per time-point), (iii) 30 mg/kg of AZD-1775 (adavosertib, purchased from Combi-Blocks, San Diego, USA) given twice a day for three consecutive days and once on day four (27 mice in total, 3 mice per time-point), (iv) or 80 mg/kg of Zn-c3 (purchased from EOS Med Chem, Jina City, China) given once a day for four consecutive days (27 mice in total, 3 mice per time-point). The doses used for each compound have previously been reported as active dose levels. Compound of formula (I) was formulated as a suspension in 0.5% methylcellulose with 1% Tween 80 and administered at a concentration of 3.0 mg/mL. […] The dosing volume of all formulations was 10 mL/kg. At designated time-points the mice were euthanized by carbon dioxide inhalation, blood samples were collected by cardiac puncture into K2EDTA containing tubes. The tubes were inverted several times, placed on ice and centrifuged within 30 min of collection (4° C. for 5 min at 6000 rpm) to obtain plasma. The plasma samples were snap frozen in dry ice and stored at −80° C. until analysis. The brain was collected, weighed and snap frozen in dry ice until further analysis. To obtain brain homogenates, firstly water was added to each brain (brain weight:water volume=1:4) then the brain was homogenized with a H-speed dispersator (time procedure: homogenizing for 10 s and interval of 10 s per time, total 3-5 times; cleaning procedure for dispersator: Water-Methanol-Ethanol-Water, 10 s each). The brain homogenate samples were transferred to individual tubes and stored at −80° C. prior to analysis. The mouse plasma and brain samples were analysed as follows. For each analytical batch of plasma and brain samples, the standard and quality control (QC) samples were freshly prepared in blank male Nu/Nu mouse plasma (with K2EDTA anticoagulant) and brain homogenate. To an aliquot of each standard, QC, control blank and study samples, internal standard (^13CD6-Compound of formula (I) for Compound of formula (I), terfenadine for AZD-1775 and Zn-c3) in methanol/acetonitrile (1:1, v/v) was added. The samples were mixed for 1 minute and centrifuged at 4000 rpm at 4° C. for 15 minutes. Supernatants were transferred and diluted in MeOH/water (1:1, v/v, with 0.1% FA) prior to LC-MS/MS injection. Chromatographic separation was achieved on an Shimadzu LC-20AD using a Kinetex 2.6μ C18 100A column (50 mm*3.00 mm) for Compound of formula (I) and AZD-1775 samples and a ACE 5 C4 column (50 mm*2.1 mm) for Zn-c3 samples with gradient elution using the following conditions: flow rate: 0.7 mL/min; run time: 3.0 min; mobile phase: A: 5 mM NH4OAc (0.1% FA), B: Acetonitrile (0.1% FA). Detection was accomplished with an AB Sciex 5500 utilizing electrospray MS/MS in positive ion multiple reaction monitoring mode (MRM). The MRM channels were 511.29/98 for Compound of formula (I), 501.47/442.20 for AZD-1775 and 527.36/468.10 for Zn-c3. The MRM channels of internal standard were 518.17/102.10 (^13CD6-Compound of formula (I)) for Compound of formula (I), 472.40/436.40 (terfenadine) for AZD-1775 and Zn-c3. The measured plasma and brain concentrations at each time-point, the nominal sample collection time, and intended dosages were used for pharmacokinetic analysis. The PK parameters of all study compounds were determined by non-compartmental analysis using WinNonlin Version 8.0 (Pharsight).

[2] = Binding to plasma proteins; assay type: in vitro ADME; conditions: human
Method: Thus, the unbound (or free fraction) of the Study Drug and the N^32-desmethyl-Study drug are calculated.

What does the source list for `Cc1cc(Nc2ncc3c(n2)N(C)CN(c2c(Cl)cccc2Cl)C3=O)ccc1C1CCN(C)CC1` [Compound of formula (I)]?
AUCInf, brain ([1]; qd for four days, day 4): 31763 ng·h/g; AUCLast, brain ([1]; qd for four days, day 4): 31610 ng·h/g; Cmax, brain ([1]; qd for four days, day 4): 1963 ng/g; AUCInf, brain ([1]; single dose, day 1): 37471 ng·h/g; AUCLast, brain ([1]; single dose, day 1): 37368 ng·h/g; Cmax, brain ([1]; single dose, day 1): 3557 ng/g; Kp ([1]; qd for four days, day 4, read-out: Brain to plasma ratio based on AUCInf): 0.489; Kp ([1]; qd for four days, day 4, read-out: Brain to plasma ratio based on AUCLast): 0.488; Kp ([1]; qd for four days, day 4, read-out: Brain to plasma ratio based on Cmax): 0.498; Kp ([1]; single dose, day 1, read-out: Brain to plasma ratio based on AUCInf): 0.44; Kp ([1]; single dose, day 1, read-out: Brain to plasma ratio based on AUCLast): 0.439; Kp ([1]; single dose, day 1, read-out: Brain to plasma ratio based on Cmax): 0.505; Cmax ([1]; qd for four days, day 4): 3940 ng/mL; AUC(0-inf) ([1]; qd for four days, day 4): 65000 ng·h/mL; AUC(0-t) ([1]; qd for four days, day 4): 64800 ng·h/mL; Cmax ([1]; single dose, day 1): 7040 ng/mL; AUC(0-inf) ([1]; single dose, day 1): 85200 ng·h/mL; AUC(0-t) ([1]; single dose, day 1): 85100 ng·h/mL; fraction unbound [2]: 0.083
